The source of these data is US12023378B2, “Covalently linked antigen-antibody conjugates” (Hoffmann-La Roche Inc., priority 2012, dated 2024).

A short description of data set [1]: Dig-peptide serum kinetic: Western blot detection of digoxigenylated polypeptide in serum. The format is in vivo, mouse. The procedure:
(§1) Serum samples were stored at −80° C.
The determination of the amount of digoxigenylated peptide in the serum at the given time points was difficult compared to the detection of Dig-Cy5 as no direct means to detect the polypeptide in serum samples was available. Therefore, a Western-Blot related assay to detect digoxigenylated peptide in serum was established. In a first step, the serum samples were separated on reducing SDS-PAGE. Because sample preparation included exposure of the serum to high concentrations of SDS and reducing agents, complexed Dig-polypeptide conjugates can become released from the (completely denatured/unfolded) anti-digoxigenin antibody, whereas covalently conjugates remained bound. To mediate the release of the polypeptide from the non-covalent antibody complex and separate the individual components by SDS-PAGE, 2 μl of each serum sample was diluted in 18 μl 20 mM histidine/140 mM NaCl pH 6.0, mixed with 6.7 μl of 4×LDS sample buffer and 3 μl of 10× sample reducing agent (NuPAGE, Invitrogen) for 5 min at 95° C. As a control, 2 μl of serum of an untreated mouse of the same strain was used. […] Digoxigenylated polypeptides were subsequently detected on the membrane with an anti-digoxigenin antibody. […] Chemiluminescence was detected with the Lumilmager F1 (Roche) with an exposure time of 20 min.
Background: Immunoblotting shows a protein as a band on a membrane.

For data set [2] the following is noted: mouse, in vivo. The method, then:
The objective of the described peptide modification technology is to improve the therapeutic applicability of peptides. Major bottlenecks for therapeutic application of peptides are currently limited stability in vivo and/or short serum half-life and fast clearance. The PK parameters of antibody conjugates of fluorophores were determined in vivo and compare with the PK of non-covalent antibody-fluorophore complexes. Therefore, (i) the anti-biotin antibody VH53C was covalently conjugated to the biotinylated fluorophore Biot-Cys-Cy5, (ii) a non-covalent complex of the anti-biotin antibody with biotinylated fluorophore Biot-Cy5 was generated, (iii) the covalently conjugated and the non-covalently complexed compounds were applied to animals and (iv) the serum concentrations of the compounds over time in these animals was measured by determination of the fluorescence of Cy5 (A650), and that of the corresponding antibody by an ELISA method that specifically detects the humanized antibody.
as §1

The conditions of data set [3]: mouse, in vivo. An excerpt: The control group was not pre-injected with the anti-biotin antibody.
This is another data set of the same source.

For `CC[C@H](C)[C@H](NC(C)=O)C(=O)N[C@@H](CCCCNC(=O)CCOCCOCCOCCNC(=O)CO[C@H]1CC[C@@]2(C)[C@H](CC[C@@H]3[C@@H]2C[C@@H](O)[C@]2(C)[C@@H](C4=CC(=O)OC4)CC[C@]32O)C1)C(=O)N1CCN(c2ccc3ncn(CC(=O)N[C@@H](CCCNC(=N)N)C(=O)N[C@@H](Cc4c[nH]cn4)C(=O)N[C@@H](Cc4ccc(O)cc4)C(=O)N[C@@H](CC(C)C)C(=O)N[C@@H](CC(N)=O)C(=O)N[C@@H](Cc4c[nH]c5ccccc45)C(=O)N[C@H](C(=O)N[C@H](C(=O)N[C@@H](CCCNC(=N)N)C(=O)N[C@@H](CCC(N)=O)C(=O)N(C)[C@@H](CCCNC(=N)N)C(=O)N[C@@H](Cc4ccc(O)cc4)C(N)=O)[C@@H](C)O)C(C)C)c(=O)c3c2)CC1` [non-complexed polypeptide], the “presence of digoxigenylated polypeptide in serum (Western blot signal)” value in data set [1] (32.1 nmol, 0.08 h to 24 h after administration, FIG. 35) was “barely any signal associable to the small polypeptide was detectable even at the earliest time point”. Also, the “half-life / persistence in the serum of mice” value in data set [1] (Western blot, up to 24 hrs.) is listed as “very short half-life”.
Take “Biotin-O2Oc-Ser-O2Oc-DADOO-Cy5 [Biotin-Ser-Cy5]”: the “relative Cy5-mediated fluorescence in serum” value in data set [2] is “not detectable”. The “serum half-life and exposure levels” value in data set [3] is “low serum half-life and low exposure levels”.
